Source: US10849881B2, “Octahydro-cyclobuta[1,2-c;3,4-c′]dipyrrol-2-yl” (Hoffmann-La Roche Inc., priority 2013, dated 2020)

biological target: ATX (human His-tagged) (Homo sapiens (Human), UniProt Q13822); assay: Human ATX enzyme inhibition assay (fluorescence quenching, MR121 substrate); assay type: biochemical; conditions: 30 nM ATX, 1 μM MR121 substrate, 30° C., pH 8.0
Method in brief: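 Fluorescence quenching assay with MR121/tryptophan-labelled substrate analogue in Tris-HCl buffer (140 mM NaCl, CaCl2, MgCl2, 0.01% Triton X-100, pH 8.0). Serially diluted compounds were preincubated 15 min at 30 °C with 30 nM ATX (final), then 1 µM substrate (final) added and incubated 15 min at 30 °C.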

Row | SMILES | IC50 [nM]
1 | CCOc1cc(C(=O)N2C[C@@H]3[C@H]4CN(C(=O)c5ccc6[nH]nnc6c5)C[C@H]4[C@@H]3C2)cc2c1ccn2CC(F)(F)F [Example 1.085, (1H-benzotriazol-5-yl)-{(3aS,3bS,6aR,6bR)-5-[4-ethoxy-1-(2,2,2-trifluoro-ethyl)-1H-indole-6-carbonyl]-octahydro-cyclobuta[1,2-c;3,4-c′]dipyrrol-2-yl}-methanone] | 2.7
2 | CC(C)Oc1cc(C(=O)N2C[C@@H]3[C@H]4CN(C(=O)c5ccc6[nH]nnc6c5)C[C@H]4[C@@H]3C2)nc2ccccc12 [Example 1.067, [(3aR,3bS,6aR,6bS)-5-(1H-benzotriazole-5-carbonyl)-octahydro-cyclobuta[1,2-c;3,4-c′]dipyrrol-2-yl]-(4-isopropoxy-quinolin-2-yl)-methanone] | 5
3 | O=C(/C=C/c1ccc(OC(F)(F)F)cc1)N1C[C@@H]2[C@H](C1)[C@H]1CN(C(=O)[C@@H]3CCc4[nH]nnc4C3)C[C@@H]21 [Example 1.006, (E)-1-[(3aS,3bS,6aR,6bR)-5-((R)-4,5,6,7-tetrahydro-1H-benzotriazole-5-carbonyl)-octahydro-cyclobuta[1,2-c;3,4-c′]dipyrrol-2-yl]-3-(4-trifluoromethoxy-phenyl)-propenone] | 8
4 | O=C(c1ccc2[nH]nnc2c1)N1C[C@@H]2[C@H](C1)[C@H]1CN(C(=O)c3cc4ccccc4c(OCC(F)(F)F)n3)C[C@@H]21 [Example 1.060, [(3aR,3bS,6aR,6bS)-5-(1H-benzotriazole-5-carbonyl)-octahydro-cyclobuta[1,2-c;3,4-c′]dipyrrol-2-yl]-[1-(2,2,2-trifluoro-ethoxy)-isoquinolin-3-yl]-methanone] | 4.7
